In brackets after ≈: the same amount, converted by molar mass. Several values for one entry are separate records, joined by “and”; a condition that tells them apart may be missing. Equal entries are not always repeated. A value given as a limit tells only on which side of the number the result lay.

This is an account of results in article PMC10783034, “Pharmacokinetic and pharmacodynamic evaluation of the atypical tetracyclines chelocardin and amidochelocardin in murine infection models” (Microbiology Spectrum, 2023).

The subject of one series is E. coli C175-94. Nature of the series: MIC determination. Type of series: cell-based. As to conditions: MHB medium. How it is done:
(§1) The assay was conducted as described previously ([54]) with the following modifications. The MIC was tested against the K. pneumoniae strain ATCC 43816 in an MHB (not cation-adjusted) medium. CHD and CDCHD were tested in concentrations ranging from 0.078 to 10 µg/mL. Moreover, the MIC was determined for the following strains: K. pneumoniae DSM-30104, E. faecium DSM-20477, S. aureus DSM-346, P. aeruginosa DSM-11128, A. baumannii DSM-30008, E. aerogenes DSM-30053, E. coli ATCC 25922, and E. coli C175-94. All strains were grown in MHB medium, except for E. faecium, which was grown in TSB. CHD, epi-CDH, and CDCHD were tested in concentrations ranging from 0.125 to 64 µg/mL as described previously ([19]).

The next series has as its system E. aerogenes DSM-30053. Nature of the series: MIC determination. It counts as cell-based. As to conditions: MHB medium. How it is done: as §1
The subject of a further series is S. aureus DSM-346. In words: MIC determination. Type of series: cell-based. As to conditions: MHB medium. On the procedure: as §1
Series [1] has as its system E. coli ATCC 25922. Nature of the series: MIC determination. Type of series: cell-based. As to conditions: MHB medium. On the procedure: as §1
Another series has as its system E. faecium DSM-20477. Nature of the series: MIC determination. It counts as cell-based. Particulars: TSB medium. How it is done:
as §1

The subject of the next series is K. pneumoniae DSM-30104. Nature of the series: MIC determination. As to conditions: MHB medium. It counts as cell-based. On the procedure: as §1
The test system of the next series is A. baumannii DSM-30008. In words: MIC determination. It counts as cell-based. As to conditions: MHB medium. How it is done: as §1
Another series deals with P. aeruginosa DSM-11128. Nature of the series: MIC determination. It counts as cell-based. As to conditions: MHB medium. How it is done:
as §1

The next series concerns K. pneumoniae ATCC 43816. In words: Neutropenic thigh infection model in CD-1 mice. Type of series: in vivo. On the procedure: (§2) The inoculum for K. pneumoniae ATCC 43816 was prepared freshly as described previously to yield 1 × 10^4 cfu/mL ([56]). The inoculum of the E. coli ATCC 25922 was diluted from a frozen stock to 1.4 × 10^6 cfu/ml. N = 6 animals per group were used for both tested strains. N = 4 mice were used in the pre-treatment group in the neutropenic thigh infection model with E. coli ATCC 25922. Mice were rendered neutropenic by administration of 150 mg/kg and 100 mg/kg cyclophosphamide intraperitoneally on days −4 and −1, respectively. On the day of infection (day 0), mice received 30 µL of the inoculum of K. pneumoniae ATCC 43816 into each lateral thigh under isoflurane anesthesia, corresponding to 6 × 10^2 cfu/mouse. In the model with E. coli, mice received 50 µL of the inoculum of E. coli into each lateral thigh under isoflurane anesthesia, corresponding to 1.4 × 10^5 cfu/mouse. Whilst still under anesthesia, mice were administered a dose of Buprenorphine (0.03 mg/kg) subcutaneously for pain relief. 24 hours after infection, mice were euthanized by slowly introducing CO2 and cardiac puncture to remove blood from the heart immediately after death. Kidneys and thighs were aseptically removed. 24 hours after infection, the clinical score of every individual animal was assessed. Clinical scoring comprises the assessment of different parameters such as spontaneous behavior, posture, appearance, and provoked behavior. Each parameter was assessed with a score of 0 to 3 (ascending severity from 0 to 3). The humane endpoint was reached when the clinical score of a single parameter was 3 or if the total clinical score was higher than 8. Whole blood was collected into Eppendorf tubes coated with 0.5 M EDTA. Organs were homogenized in 0.9% NaCl solution. Organs and blood were plated onto agar plates in duplicates in serial dilutions and incubated at 37°C for 24 hours. 25 µL per dilution of the homogenized organ was spotted onto agar plates. In addition, 1 mL of homogenized organ is streaked onto an agar plate in technical duplicates. If no single colony is observed then, this would result in 0 cfu/mL. Thus, the threshold of detection is 0 log10 cfu/g. The groups used in the different neutropenic thigh infection models are found in Tables S4 through S7. In brief, levofloxacin with 3.3 mg/kg TID IP was used as a positive control antibiotic for the K. pneumoniae model, whereas ciprofloxacin with 20 mg/kg BID IV was used for the E. coli model, respectively. The rationale for TID dosing was based on the PK/PD index of fAUC/MIC for fluoroquinolones ([57] [–] [59]). […] Moreover, CHD and CDCHD were administered at 10 mg/kg SC QID (t = 1,3,5,7 hours), 15 mg/kg SC TID (t = 1,4,7 hours), and 50 mg/kg SC QD (t = 1 hour) (Tables S5 and S6). In the E. coli neutropenic thigh infection model, CHD and CDCHD, respectively, were administered at 50 mg/kg IV QD (t = 1 hour) and 15 mg/kg IV BID (t = 1 and 6 hours) (Table S7).
(§3) For the neutropenic thigh infection model with E. coli ATCC 25922, the thighs were regarded as two independent infection sites throughout the experiment. For statistical analysis, individual thighs (left and right) were treated as separate samples although these were not completely independent values. For the neutropenic thigh infection model with K. pneumoniae ATCC 43816, the individual thighs (left and right) were treated as one sample. For the efficacy models, the non-parametric Kruskal-Wallis test was used with GraphPad Prism 9.4.1. For the ascending urinary tract infection model, an ordinary one-way ANOVA with Dunnett’s multiple comparison test was used with GraphPad Prism 9.4.1.

The subject of series [2] is E. coli ATCC 25922. Nature of the series: Neutropenic thigh infection model in CD-1 mice. It counts as in vivo. Particulars: for bacterial burden in the thigh relative to stasis (pre-treatment group): 50 mg/kg IV QD; for tolerability: doses up to 50 mg/kg IV in the neutropenic thigh infection model. How it is done: as §2, §3
Where [3] appears, read: 24 hours after infection, CHD/CDCHD 10 mg/kg SC QD or BID, levofloxacin 3.3 mg/kg IP TID, vs vehicle.
Setting [4] is: higher-dose studies: 10 mg/kg SC QID, 15 mg/kg SC TID, 50 mg/kg SC QD, levofloxacin 3.3 mg/kg IP TID.

With `Cc1ccc2c(C)c3c(c(O)c2c1O)C(=O)C1(O)C(=O)C(C(N)=O)=C(O)C(N)C1C3` (stereo not drawn) [CDCHD, 2-carboxamido-2-deacetyl-chelocardin], the minimum inhibitory concentration (MIC) was 2 to 4 µg/mL in the series on E. coli C175-94; 8 µg/mL (≈ 19.4 µM) with E. aerogenes DSM-30053; 2 µg/mL (≈ 4.85 µM) against S. aureus DSM-346; 2 µg/ml and ~ 2 µg/ml against E. coli ATCC 25922 [1]; 2 µg/mL (≈ 4.85 µM) with E. faecium DSM-20477; 1 µg/mL (≈ 2.42 µM) with K. pneumoniae DSM-30104. Also, the minimum inhibitory concentration (MIC) was 8 µg/mL (≈ 19.4 µM) in the series on A. baumannii DSM-30008 and 16 µg/mL (≈ 38.8 µM) in the series on P. aeruginosa DSM-11128. The “bacterial burden in the kidney” value was “a reduction of bacterial burden was observed in the kidney” in the series on K. pneumoniae ATCC 43816 (10 mg/kg SC BID, vs vehicle control, similar to levofloxacin, not statistically significant) and “reduced bacterial burden in the kidney to apparent sterilization” with K. pneumoniae ATCC 43816 (setting [4]). Further, the “bacterial burden in blood” value is “a reduction of bacterial burden was observed” with K. pneumoniae ATCC 43816 (10 mg/kg SC QID, 15 mg/kg SC TID, 50 mg/kg SC QD (all three groups)) and “The same was found in blood” in the series with K. pneumoniae ATCC 43816 (setting [3]). The “bacterial burden in the thigh” value with K. pneumoniae ATCC 43816 (50 mg/kg SC QD) is “a statistically significant reduction of bacterial burden in the thigh was observed”. Also, in the series with K. pneumoniae ATCC 43816 (50 mg/kg SC QD), the “reduction of bacterial burden in the thigh” value is “approximately one”. The “bacterial burden in the thigh relative to stasis (pre-treatment group)” value with E. coli ATCC 25922 [2] is on record as “did not reduce bacterial load back to stasis”. The “bacterial burden in kidney” value in the series with E. coli ATCC 25922 [2] (both IV groups (15 mg/kg IV BID and 50 mg/kg IV QD)) is “pronounced reduction of bacterial burden”. For the same molecule, in the series on E. coli ATCC 25922 [2], the tolerability result is “well tolerated”.
Regarding `CC(=O)C1=C(O)[C@H](N)[C@@H]2Cc3c(c(O)c4c(O)c(C)ccc4c3C)C(=O)[C@]2(O)C1=O` [CHD, chelocardin], the MIC was 2 µg/mL (≈ 4.86 µM) in the series on E. coli C175-94; 32 µg/mL (≈ 77.8 µM) against E. aerogenes DSM-30053; 4 µg/mL (≈ 9.72 µM) against S. aureus DSM-346; 2 µg/ml and ~ 2 µg/ml against E. coli ATCC 25922 [1]; 4 µg/mL (≈ 9.72 µM) in the series with E. faecium DSM-20477; 2 to 4 µg/mL with K. pneumoniae DSM-30104. In addition, the values for the MIC in the series with A. baumannii DSM-30008 and against P. aeruginosa DSM-11128 were 16 µg/mL (≈ 38.9 µM) and over 64 µg/mL, respectively. The “bacterial burden in the thigh” value with K. pneumoniae ATCC 43816 (10 mg/kg SC QID, 15 mg/kg SC TID, 50 mg/kg SC QD (all three dose levels)) was “no effect was observed in the thigh”; with E. coli ATCC 25922 [2] (15 mg/kg IV BID) it was “reduced bacterial burden in the thigh”. In addition, the “bacterial burden in the kidney” value with K. pneumoniae ATCC 43816 (50 mg/kg SC QD) is recorded as “a slight reduction of bacterial burden”; in the series with K. pneumoniae ATCC 43816 (setting [4]), “no statistically significant effect was observed”. In addition, the “bacterial burden in blood” value is given as “the bacterial burden was reduced” in the series on K. pneumoniae ATCC 43816 (50 mg/kg SC QD, similar range as levofloxacin, statistical significance missed) and “The same was found in blood” in the series on K. pneumoniae ATCC 43816 (setting [3]). In addition, in the series on E. coli ATCC 25922 [2] (15 mg/kg IV BID), the “bacterial burden in kidney” value was “moderate reduction”. Also, in the series on E. coli ATCC 25922 [2] (50 mg/kg IV), the “kill in the thigh compared to the pre-treatment group” value is given as about 1 log10-unit. For the same molecule, the “reduction in the thigh compared to the vehicle” value in the series with E. coli ATCC 25922 [2] (50 mg/kg IV) amounted to 5 log10-unit. Further, the “bacterial burden in the thigh relative to stasis (pre-treatment group)” value in the series on E. coli ATCC 25922 [2] is given as “reduction of bacterial burden to levels below stasis”. Further, the tolerability result with E. coli ATCC 25922 [2] is “well tolerated”.
